In patent publication US20190054051A1, “DOPA Formulations for Treatments of Parkinson's Disease” (The Board of Trustees of the Leland Stanford Junior …, priority 2017, published 2019):

What was measured:
hemiparkinsonian mice = experiment: Abnormal Involuntary Movements (AIMs) after chronic L-DOPA, Example 5; assay type: in vivo; conditions: daily L-DOPA (mixed with benserazide) injections, post-testing 15 days
Method: Mice were anesthetized with 5% isoflurane (Isothesia, Henry Schein Animal Health, Dublin, Ohio) in 100% oxygen with a delivery rate of 51/minute until loss of righting reflex and mounted on a stereotaxis. The anesthesia was maintained with 1 to 1.5% isoflurane throughout the surgical procedure. Body temperature was maintained using heating pads; respiration was monitored every 10 minutes. Mice were treated with desipramine HCl (25 mg/kg i/p) 30 minutes before the infusion of 6-hydroxydopamine (6-OHDA). […]
Measurement of Abnormal Involuntary Movements (AIMs) were quantified after chronic L-DOPA administration in hemiparkinsonian mice. In the pretesting sessions, mice were given daily injections of L-DOPA/benserazide (5/10 mg/Kg s/c) for 9 days; AIMs were assessed every 20 minutes for 3 hrs after injection every third day of L-DOPA injections. Total duration of contralateral abnormal movements of the tongue-orofacial muscles and forelimb, twisting of the body (dystonia), and locomotor (rotational) behavior were scored, as illustrated in FIG. 6E. […] After five days' rest, in the post-test phase, mice were administered DOPA-benserazide or one of the four ranitidine formulations (Form IA, IB, IIA, or IIB, as defined above) daily for 15 days; AIMs were again assessed every third day.
Western blots were quantified using band densitometry in Image J software (NIH version). […]

ChAT = ChAT immunoreactivity (fluorescence intensity) in cholinergic interneurons; design: species or system mice; conditions: mouse, in vivo
Method: Immunohistochemical analysis was performed with commonly known procedures. Mice were transcardially perfused with ice-cold 4% paraformaldehyde in PBS 45 minutes after challenge with L-DOPA or DOPA-ranitidine formulations. The brain was dissected out, post-fixed in 4% PFA overnight at 4° C., and cryoprotected using 30% sucrose in PBS. Cryoprotected brains were stored at −80° C. For TH immunostaining 30 μm coronal sections were taken around both CPu and substantia nigra, to examine dopaminergic denervation at the level of striatum and neuronal cell body loss at the level of substantia nigra. For pERK, ChAT, FoxP and AFos B expression, only coronal sections at the level of striatum was used. Free-floating coronal sections were blocked in blocking buffer (PBS with 2% BSA, 0.3% TritonX-100) for 1 hr at room temperature with gentle rocking. Sections were then transferred to incubation solution (PBS with 1% BSA, 0.03% TritonX-100) and the respective primary antibody as shown in table 1 and incubated at 4° C. for 24-48 hrs with gentle shaking. The sections were mounted with fluorescein or DAPI containing mounting media and serial z stack images were taken using Zeiss laser scanning confocal microscope LSM 800 at Stanford Cell Sciences Imaging facility. […]

animal models of PD = conditions: previously reported; cited from earlier work

AIMs over the course of daily administration (hemiparkinsonian mice) | SMILES | ChAT immunoreactivity (FI), lesioned side versus intact side (ChAT) | L-DOPA induced dyskinesia (dyskinetic behavior following DOPA treatment) (animal models of PD)
increasing AIMs | N[C@@H](Cc1ccc(O)c(O)c1)C(=O)O [L-DOPA, L-3,4-dihydroxyphenylalanine] | slightly lower on the lesioned side than the intact side | 
 | CN/C(=C\[N+](=O)[O-])NCCSCc1ccc(CN(C)C)o1 [Ranitidine, N-(2-[(5-[(dimethylamino)methyl]furan-2-yl)methylthio]ethyl)-N′-methyl-2-nitroethene-1,1-diamine] |  | suppress LID
